Experimental data as given in US11046696B2, “Fused pyrimidine compound or salt thereof” (TAIHO PHARMACEUTICAL CO., LTD., priority 2016, dated 2021).

Assay: Evaluation of stability in liver microsome
Conditions: mouse liver microsome, 1 μM, 37° C. for 30 minutes

Compound	Remaining (%)
CC(C)(C)n1cc(C(=O)Nc2ccc(-c3cc[nH]n3)cc2)c2c(N)ncnc21 [Example 80, N-(4-(1H-pyrazol-3-yl)phenyl)-4-amino-7-(tert-butyl)-7H-pyrrolo[2,3-d]pyrimidine-5-carboxamide]	50
COCc1ccc(NC(=O)c2c(C(C)=O)n(C3(C)CC3)c3ncnc(N)c23)cc1 [Example 64, 6-acetyl-4-amino-N-(4-(methoxymethyl)phenyl)-7-(1-methylcyclopropyl)-7H-pyrrolo[2,3-d]pyrimidine-5-carboxamide]	89
COCc1ccc(NC(=O)c2c(-c3ccc(F)nc3)n(C3(C)CC3)c3ncnc(N)c23)cc1 [Example 190, 4-amino-6-(6-fluoropyridin-3-yl)-N-(4-(methoxymethyl)phenyl)-7-(1-methylcyclopropyl)-7H-pyrrolo[2,3-d]pyrimidine-5-carboxamide]	58
COCc1ccc(NC(=O)c2c(-c3ccccc3)n(C3(C)CC3)c3ncnc(N)c23)cc1 [Example 154, 4-amino-N-(4-(methoxymethyl)phenyl)-7-(1-methylcyclopropyl)-6-phenyl-7H-pyrrolo[2,3-d]pyrimidine-5-carboxamide]	50
COCc1ccc(NC(=O)c2c(C#Cc3ccccc3OC)n(C3(C)CC3)c3ncnc(N)c23)cc1 [Example 113, 4-amino-N-(4-(methoxymethyl)phenyl)-6-((2-methoxyphenyl)ethynyl)-7-(1-methylcyclopropyl)-7H-pyrrolo[2,3-d]pyrimidine-5-carboxamide]	79
COCc1ccc(NC(=O)c2c(C#Cc3ccsc3)n(C3(C)CC3)c3ncnc(N)c23)cc1 [Example 176, 4-amino-N-(4-(methoxymethyl)phenyl)-7-(1-methylcyclopropyl)-6-(thiophen-3-ylethynyl)-7H-pyrrolo[2,3-d]pyrimidine-5-carboxamide]	70
CCn1nccc1C#Cc1c(C(=O)Nc2ccc(COC)cc2)c2c(N)ncnc2n1C1(C)CC1 [Example 114, 4-amino-6-((1-ethyl-1H-pyrazol-5-yl)ethynyl)-N-(4-(methoxymethyl)phenyl)-7-(1-methylcyclopropyl)-7H-pyrrolo[2,3-d]pyrimidine-5-carboxamide]	55
COCc1ccc(NC(=O)c2cn(C3(C)CC3)c3ncnc(N)c23)cc1 [Example 36, 4-amino-N-(4-(methoxymethyl)phenyl)-7-(1-methylcyclopropyl)-7H-pyrrolo[2,3-d]pyrimidine-5-carboxamide]	73
COCc1ccc(NC(=O)c2c(C(C)O)n(C3(C)CC3)c3ncnc(N)c23)cc1 (stereo not drawn) [Example 204, 4-amino-6-(1-hydroxyethyl)-N-(4-(methoxymethyl)phenyl)-7-(1-methylcyclopropyl)-7H-pyrrolo[2,3-d]pyrimidine-5-carboxamide]	83
COCc1ccc(NC(=O)c2c(C#Cc3ccc[nH]3)n(C3(C)CC3)c3ncnc(N)c23)cc1 [Example 161, 6-((1H-pyrrol-2-yl)ethynyl)-4-amino-N-(4-(methoxymethyl)phenyl)-7-(1-methylcyclopropyl)-7H-pyrrolo[2,3-d]pyrimidine-5-carboxamide]	68
[2H]C([2H])([2H])OCc1ccc(NC(=O)c2cn(C(C)(C)C)c3ncnc(N)c23)cc1 [Example 35, 4-amino-7-(tert-butyl)-N-(4-((methoxy-d3)-methyl)phenyl)-7H-pyrrolo[2,3-d]pyrimidine-5-carboxamide]	58
COCc1ccc(NC(=O)c2c(-c3ccc(N4CCN(C)CC4)cc3)n(C3(C)CC3)c3ncnc(N)c23)cc1 [Example 171, 4-amino-N-(4-(methoxymethyl)phenyl)-7-(1-methylcyclopropyl)-6-(4-(4-methylpiperazin-1-yl)phenyl)-7H-pyrrolo[2,3-d]pyrimidine-5-carboxamide]	77
COCc1ccc(NC(=O)c2c(C#Cc3cccc(NCc4ccncc4)c3)n(C3(C)CC3)c3ncnc(N)c23)cc1 [Example 122, 4-amino-N-(4-(methoxymethyl)phenyl)-7-(1-methylcyclopropyl)-6-((3-((pyridin-4-ylmethyl)amino)phenyl)ethynyl)-7H-pyrrolo[2,3-d]pyrimidine-5-carboxamide]	62
COCc1ccc(NC(=O)c2c(C#Cc3csc(C)n3)n(C3(C)CC3)c3ncnc(N)c23)cc1 [Example 126, 4-amino-N-(4-(methoxymethyl)phenyl)-7-(1-methylcyclopropyl)-6-((2-methylthiazol-4-yl)ethynyl)-7H-pyrrolo[2,3-d]pyrimidine-5-carboxamide]	69
COCc1ccc(NC(=O)c2c(-c3ccc(CO)cc3)n(C3(C)CC3)c3ncnc(N)c23)cc1 [Example 145, 4-amino-6-(4-(hydroxymethyl)phenyl)-N-(4-(methoxymethyl)phenyl)-7-(1-methylcyclopropyl)-7H-pyrrolo[2,3-d]pyrimidine-5-carboxamide]	72
CCc1c(C(=O)Nc2ccc(COC)cc2)c2c(N)ncnc2n1C1(C)CC1 [Example 207, 4-amino-6-ethyl-N-(4-(methoxymethyl)phenyl)-7-(1-methylcyclopropyl)-7H-pyrrolo[2,3-d]pyrimidine-5-carboxamide]	72
COCc1ccc(NC(=O)c2c(C#Cc3ccccn3)n(C3(C)CC3)c3ncnc(N)c23)cc1 [Example 172, 4-amino-N-[4-(methoxymethyl)phenyl]-7-(1-methylcyclopropyl)-6-(pyridin-2-ylethynyl)-7H-pyrrolo[2,3-d]pyrimidine-5-carboxamide]	61
COCc1ccc(NC(=O)c2c(C#CCN3CC[S+]([O-])CC3)n(C3(C)CC3)c3ncnc(N)c23)cc1 [Example 178, 4-amino-N-(4-(methoxymethyl)phenyl)-7-(1-methylcyclopropyl)-6-(3-(1-oxidethiomorpholino)prop-1-yn-1-yl)-7H-pyrrolo[2,3-d]pyrimidine-5-carboxamide]	88
COCc1ccc(NC(=O)c2c(C#Cc3cn(C)nc3C)n(C3(C)CC3)c3ncnc(N)c23)cc1 [Example 181, 4-amino-6-((1,3-dimethyl-1H-pyrazol-4-yl)ethynyl)-N-(4-(methoxymethyl)phenyl)-7-(1-methylcyclopropyl)-7H-pyrrolo[2,3-d]pyrimidine-5-carboxamide]	62
COCc1ccc(NC(=O)c2cn(C3(C(F)F)CC3)c3ncnc(N)c23)cc1 [Example 46, 4-amino-7-(1-(difluoromethyl)cyclopropyl)-N-(4-(methoxymethyl)phenyl)-7H-pyrrolo[2,3-d]pyrimidine-5-carboxamide]	65

The remaining lines, values ahead:

Remaining (%)	Compound
68	COCc1ccc(NC(=O)c2c(C3=CCOCC3)n(C3(C)CC3)c3ncnc(N)c23)cc1 [Example 203, 4-amino-6-(3,6-dihydro-2H-pyran-4-yl)-N-(4-(methoxymethyl)phenyl)-7-(1-methylcyclopropyl)-7H-pyrrolo[2,3-d]pyrimidine-5-carboxamide]
58	COCc1ccc(NC(=O)c2c(C#CC3CCOCC3)n(C3(C)CC3)c3ncnc(N)c23)cc1F [Example 205, 4-amino-N-(3-fluoro-4-(methoxymethyl)phenyl)-7-(1-methylcyclopropyl)-6-((tetrahydro-2H-pyran-4-yl)ethynyl)-7H-pyrrolo[2,3-d]pyrimidine-5-carboxamide]
68	COCc1ccc(NC(=O)c2c(C#CCC(C)O)n(C3(C)CC3)c3ncnc(N)c23)cc1 (stereo not drawn) [Example 188, 4-amino-6-(4-hydroxypent-1-yn-1-yl)-N-(4-(methoxymethyl)phenyl)-7-(1-methylcyclopropyl)-7H-pyrrolo[2,3-d]pyrimidine-5-carboxamide]
80	COCc1ccc(NC(=O)c2c(C#CCC3CCCCC3)n(C3(C)CC3)c3ncnc(N)c23)cc1 [Example 199, 4-amino-6-(3-cyclohexylprop-1-yn-1-yl)-N-(4-(methoxymethyl)phenyl)-7-(1-methylcyclopropyl)-7H-pyrrolo[2,3-d]pyrimidine-5-carboxamide]
55	COCc1ccc(NC(=O)c2c(C#CC3(O)CCCC3)n(C3(C)CC3)c3ncnc(N)c23)cc1 [Example 131, 4-amino-6-((1-hydroxycyclopentyl)ethynyl)-N-(4-(methoxymethyl)phenyl)-7-(1-methylcyclopropyl)-7H-pyrrolo[2,3-d]pyrimidine-5-carboxamide]
68	COCc1ccc(NC(=O)c2c(C#CCC3(O)CCOCC3)n(C3(C)CC3)c3ncnc(N)c23)cc1 [Example 143, 4-amino-6-(3-(4-hydroxytetrahydro-2H-pyran-4-yl)prop-1-yn-1-yl)-N-(4-(methoxymethyl)phenyl)-7-(1-methylcyclopropyl)-7H-pyrrolo[2,3-d]pyrimidine-5-carboxamide]
69	COCc1ccc(NC(=O)c2c(F)n(C3(C)CC3)c3ncnc(N)c23)cc1 [Example 69, 4-amino-6-fluoro-N-(4-(methoxymethyl)phenyl)-7-(1-methylcyclopropyl)-7H-pyrrolo[2,3-d]pyrimidine-5-carboxamide]
80	COCc1ccc(NC(=O)c2c(C#CC3(O)CCOCC3)n(C3(C)CC3)c3ncnc(N)c23)cc1 [Example 185, 4-amino-6-((4-hydroxytetrahydro-2H-pyran4-yl)ethynyl)-N-(4-(methoxymethyl)phenyl)-7-(1-methylcyclopropyl)-7H-pyrrolo[2,3-d]pyrimidine-5-carboxamide]
79	COCc1ccc(NC(=O)c2c(C#CC(C)(C)N)n(C3(C)CC3)c3ncnc(N)c23)cc1 [Example 134, 4-amino-6-(3-amino-3-methylbut-1-yn-1-yl)-N-(4-(methoxymethyl)phenyl)-7-(1-methylcyclopropyl)-7H-pyrrolo[2,3-d]pyrimidine-5-carboxamide]
57	COCc1ccc(NC(=O)c2c(C#CCN(C)C)n(C3(C)CC3)c3ncnc(N)c23)cc1 [Example 198, 4-amino-6-(3-(dimethylamino)prop-1-yn-1-yl)-N-(4-(methoxymethyl)phenyl)-7-(1-methylcyclopropyl)-7H-pyrrolo[2,3-d]pyrimidine-5-carboxamide]
